Results taken from patent US20070141618A1, “GENES EXPRESSED IN BREAST CANCER AS PROGNOSTIC AND THERAPEUTIC TARGETS” (priority 2001, published 2007).

Legend:
[1] = test system: TFF1; conditions: reportedly; Prud'homme et al. 1985; cited from earlier work
[2] = test system: primary invasive breast cancer; experiment: Clinical tumor response (WHO criteria) in randomized Phase III neoadjuvant trial of letrozole versus tamoxifen; assay type: in vivo, human (postmenopausal women); conditions: clinical outcome of patients with profiled biopsies; clinical assessment by palpation at 4 months
Text: Definitions of Objective Response Used in the Letrozole (FEMARA™) vs. Tamoxifen Comparison Study
1. Complete Response (CR): The disappearance of all known disease, determined by 2 observations not less than 4 weeks apart.
2. Partial Response (PR): A 50% or more decrease in total tumor size of the lesions which have been measured to determine the effect of therapy by 2 observations not less than 4 weeks apart. In addition there can be no appearance of new lesions or progression of any lesion.
4. Progressive Disease (PD): A 25% or more increase in the size of one or more measurable lesions, or the appearance of new lesions.
Clinical Response Assessment
The primary efficacy variable was tumor response, assessed by clinical examination using World Health Organization (WHO) criteria (see, WHO Handbook for Reporting Results of Cancer Treatment). It was defined as the percentage of patients in each treatment group with a CR or PR as determined clinically in the breast by palpation at 4 months. Possible responses were CR, PR, NC, PD or not assessable/not evaluable (NA/NE). Palpable ipsilateral axillary lymph nodal involvement downgraded a clinical CR in tumor. Other factors were also considered such the percentage of patients who underwent breast-conserving surgery (quadrantectomy/lumpectomy) instead of mastectomy. Patients who became inoperable, or who remained inoperable at 4 months, were counted as treatment failures.
Twenty-one RNA samples were extracted from 14-gauge needle core biopsies collected before initiation of neoadjuvant endocrine therapy from patients enrolled in a randomized Phase III trial of letrozole (FEMARA™, Novartis Pharma, Basal Switzerland) versus tamoxifen for postmenopausal women with primary invasive breast cancer ineligible for breast conserving surgery. RNA was extracted from an additional 30 primary breast adenocarcinomas collected in Sweden, one additional ESR1+breast tumor surgical biopsy, two HUVEC samples, two samples from glioblastoma cell line U373-MG and one MCF7 sample using Trizol (Life Technologies, Gaithersburg, Md.). The clinical samples were collected after informed consent had been obtained according to protocols approved by local ethics committees. RNA was purchased for two samples, an infiltrating Stage III duct carcinoma (Ambion, Austin, Tex.) and a pool of two normal breast tissues (Clontech, Palo Alto, Calif.). The total number of samples prepared was 59 including 53 breast cancer biopsies and one pooled normal breast sample. Total RNA was purified using QIAGEN RNEASY™ columns (Qiagen, Valencia, Calif.), processed and hybridized to the HUGENE™ FL 6800 Array (Affymetrix, Santa Clara, Calif.), as described by Lockhart et al., Nat. Biotechnol., Vol. 14, pp. 1675-1680 (1996).
In another aspect of the invention 136 breast biopsies from 53 patients were obtained. RNA was extracted from 116 biopsies. Expression profiles were generated for 43 biopsies from 35 patients. Predictive markers of endocrine therapy responsiveness in breast tumors were identified. The breakdown of the profiled biopsies from the pre-letrozole (FEMARA™) treatments and the patient's clinical outcome was as follows: four patients with CR, nine patients with PR, four patients with NC and four patients with PD.
For the group treated with tamoxifen there were no patients in the CR category, 10 patients with PR, seven patients with NC and four patients with PD.
Patients with CR or PR were classified as “Responders” and those with NC or PD were classified as “Non-responders”. The expression of 8,000 genes was compared between these two groups in the pre-treatment biopsies from patients given Letrozole (FEMARA™). Numerical values (AvDiff) represent the expression level for that gene in a particular sample. For computational reasons the average of the AvDiff values was calculated for each gene on the array for all of the responders. These averages were then compared to each gene for each individual sample in the Non-responders group. […]

[3] = test system: advanced ER-positive breast cancer; conditions: patients with advanced ER-positive breast cancer; Clark et al. 1988; cited from earlier work

Row | SMILES | effect on TFF1 mRNA levels [1] | patients with Complete Response (CR) [2] | patients with No Change (NC) [2] | patients with Partial Response (PR) [2] | patients with Progressive Disease (PD) [2] | response rate [3] | effect on estradiol induction of TFF1 [1]
1 | C[C@]12CCC(=O)C[C@@H]1CC[C@@H]1[C@@H]2CC[C@]2(C)[C@@H](O)CC[C@@H]12 [dihydrotestosterone] | not |  |  |  |  |  | 
2 | N#Cc1ccc(C(c2ccc(C#N)cc2)n2cncn2)cc1 [letrozole] |  | four | four | nine | four |  | 
3 | CC(=O)[C@H]1CC[C@H]2[C@@H]3CCC4=CC(=O)CC[C@]4(C)[C@H]3CC[C@]12C [progesterone] | not |  |  |  |  |  | 
4 | CC/C(=C(\c1ccccc1)c1ccc(OCCN(C)C)cc1)c1ccccc1 [tamoxifen] |  | no | seven | 10 patients | four | around 50% | inhibited
